≈ marks a conversion by molar mass, not a printed value.
Tests used:
[1] = tested on: Streptococcus pneumoniae; assay: Antibacterial activity against Streptococcus pneumoniae assessed as diameter zone of inhibition; format: functional
[2] = tested on: Staphylococcus aureus; assay: Antibacterial activity against Staphylococcus aureus assessed as diameter zone of inhibition; format: functional
[3] = tested on: Escherichia coli; assay: Antibacterial activity against Escherichia coli assessed as diameter zone of inhibition; format: functional
[4] = tested on: Pseudomonas aeruginosa; assay: Antibacterial activity against Pseudomonas aeruginosa assessed as diameter zone of inhibition; format: functional
[5] = tested on: Salmonella typhimurium; assay: Antibacterial activity against Salmonella typhimurium assessed as diameter zone of inhibition; format: functional, Salmonella enterica subsp. enterica serovar Typhimurium
[6] = tested on: Bacillus subtilis; assay: Antibacterial activity against Bacillus subtilis assessed as diameter zone of inhibition; format: functional
[7] = target: Trypsin (Homo sapiens, UniProt P07477+P07478+P35030); assay: Inhibition of trypsin (unknown origin); format: protein assay
[8] = tested on: Toxoplasma gondii; assay: Anti-tachyzoite activity against Toxoplasma gondii at 100 uM; format: functional, type III
[9] = tested on: PC-3; assay: Antiproliferative activity against human PC-3 cells; format: functional, cell-based
[10] = Antiproliferative activity against human 3AO cells; format: functional, cell-based
[11] = target: Vascular endothelial growth factor receptor 2 (Homo sapiens, UniProt P35968); assay: Inhibition of VEGFR2 (unknown origin) at 1 uM relative to control
Vascular endothelial growth factor receptor 2, sequence (P35968 whole entry): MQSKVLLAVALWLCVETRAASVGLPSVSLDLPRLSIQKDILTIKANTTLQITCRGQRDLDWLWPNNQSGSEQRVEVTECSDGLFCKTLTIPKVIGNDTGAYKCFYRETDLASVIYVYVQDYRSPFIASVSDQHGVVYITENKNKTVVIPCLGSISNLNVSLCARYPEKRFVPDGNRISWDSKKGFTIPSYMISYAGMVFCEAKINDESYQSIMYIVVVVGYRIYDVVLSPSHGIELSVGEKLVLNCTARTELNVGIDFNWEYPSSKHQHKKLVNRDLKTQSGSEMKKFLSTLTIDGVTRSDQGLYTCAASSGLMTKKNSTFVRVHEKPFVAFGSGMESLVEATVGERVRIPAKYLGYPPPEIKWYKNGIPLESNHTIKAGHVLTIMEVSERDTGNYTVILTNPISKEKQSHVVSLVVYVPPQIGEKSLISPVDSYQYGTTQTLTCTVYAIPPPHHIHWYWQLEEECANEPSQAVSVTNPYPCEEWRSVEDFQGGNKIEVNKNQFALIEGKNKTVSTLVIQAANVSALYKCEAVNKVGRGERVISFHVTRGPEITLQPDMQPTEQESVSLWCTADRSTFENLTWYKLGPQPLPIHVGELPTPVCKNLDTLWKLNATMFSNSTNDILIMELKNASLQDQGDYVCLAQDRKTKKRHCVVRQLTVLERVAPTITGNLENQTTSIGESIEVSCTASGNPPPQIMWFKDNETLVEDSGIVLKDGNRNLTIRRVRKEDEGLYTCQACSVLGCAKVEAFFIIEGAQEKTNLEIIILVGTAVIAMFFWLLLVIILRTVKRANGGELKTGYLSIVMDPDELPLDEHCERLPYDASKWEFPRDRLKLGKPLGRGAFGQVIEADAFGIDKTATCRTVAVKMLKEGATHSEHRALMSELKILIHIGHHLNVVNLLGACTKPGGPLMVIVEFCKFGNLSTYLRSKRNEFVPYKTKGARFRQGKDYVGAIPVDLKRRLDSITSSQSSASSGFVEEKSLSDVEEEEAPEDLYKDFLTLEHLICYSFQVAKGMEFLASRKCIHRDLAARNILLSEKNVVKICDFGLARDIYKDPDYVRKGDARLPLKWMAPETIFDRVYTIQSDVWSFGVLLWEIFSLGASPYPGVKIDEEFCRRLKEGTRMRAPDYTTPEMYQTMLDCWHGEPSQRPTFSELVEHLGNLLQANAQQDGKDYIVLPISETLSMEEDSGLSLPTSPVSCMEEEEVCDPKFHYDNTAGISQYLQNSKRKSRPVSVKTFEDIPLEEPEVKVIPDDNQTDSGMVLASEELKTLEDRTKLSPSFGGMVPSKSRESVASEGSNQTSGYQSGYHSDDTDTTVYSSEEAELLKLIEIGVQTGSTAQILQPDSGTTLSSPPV

[12] = tested on: MCF7; assay: Antiproliferative activity against human MCF7 cells; format: functional, cell-based
[13] = tested on: K562; assay: Antiproliferative activity against human K562 cells; format: functional, cell-based
[14] = tested on: HeLa; assay: Antiproliferative activity against human HeLa cells; format: functional, cell-based
[15] = tested on: BEAS-2B; assay: Antiproliferative activity against human BEAS-2B cells; format: functional, cell-based
[16] = target: T1, Glutamate receptor ionotropic AMPA (Homo sapiens, UniProt P42261+P42262+P42263+P48058); assay: Displacement of [3H]AMPA from AMPA receptor (unknown origin); format: protein-complex assay
[17] = target: Glutamate [NMDA] receptor; assay: Antagonist activity at NMDA receptor (unknown origin) assessed as NMDA-induced depolarizations; format: protein-complex assay, Homo sapiens
[18] = target: T1, Glutamate receptor ionotropic AMPA; assay: Displacement of [3H]kainic acid from AMPA receptor (unknown origin); format: protein-complex assay
[19] = Displacement of [3H]glycine from AMPA receptor (unknown origin); format: protein-complex assay, Homo sapiens
[20] = target: T1, Glutamate receptor ionotropic AMPA; assay: Antagonist activity at AMPA receptor (unknown origin) assessed as AMPA-induced depolarizations; format: protein-complex assay
[21] = target: Glutamate [NMDA] receptor; assay: Displacement of [3H]MDL from NMDA receptor (unknown origin); format: protein-complex assay, Homo sapiens
[22] = Displacement of [3H]AMPA from NMDA receptor (unknown origin); format: protein-complex assay, Homo sapiens
[23] = target: Epidermal growth factor receptor (Homo sapiens, UniProt P00533); assay: Inhibition of wild-type EGFR (unknown origin)
Epidermal growth factor receptor (Homo sapiens, UniProt P00533), sequence (P00533 whole entry): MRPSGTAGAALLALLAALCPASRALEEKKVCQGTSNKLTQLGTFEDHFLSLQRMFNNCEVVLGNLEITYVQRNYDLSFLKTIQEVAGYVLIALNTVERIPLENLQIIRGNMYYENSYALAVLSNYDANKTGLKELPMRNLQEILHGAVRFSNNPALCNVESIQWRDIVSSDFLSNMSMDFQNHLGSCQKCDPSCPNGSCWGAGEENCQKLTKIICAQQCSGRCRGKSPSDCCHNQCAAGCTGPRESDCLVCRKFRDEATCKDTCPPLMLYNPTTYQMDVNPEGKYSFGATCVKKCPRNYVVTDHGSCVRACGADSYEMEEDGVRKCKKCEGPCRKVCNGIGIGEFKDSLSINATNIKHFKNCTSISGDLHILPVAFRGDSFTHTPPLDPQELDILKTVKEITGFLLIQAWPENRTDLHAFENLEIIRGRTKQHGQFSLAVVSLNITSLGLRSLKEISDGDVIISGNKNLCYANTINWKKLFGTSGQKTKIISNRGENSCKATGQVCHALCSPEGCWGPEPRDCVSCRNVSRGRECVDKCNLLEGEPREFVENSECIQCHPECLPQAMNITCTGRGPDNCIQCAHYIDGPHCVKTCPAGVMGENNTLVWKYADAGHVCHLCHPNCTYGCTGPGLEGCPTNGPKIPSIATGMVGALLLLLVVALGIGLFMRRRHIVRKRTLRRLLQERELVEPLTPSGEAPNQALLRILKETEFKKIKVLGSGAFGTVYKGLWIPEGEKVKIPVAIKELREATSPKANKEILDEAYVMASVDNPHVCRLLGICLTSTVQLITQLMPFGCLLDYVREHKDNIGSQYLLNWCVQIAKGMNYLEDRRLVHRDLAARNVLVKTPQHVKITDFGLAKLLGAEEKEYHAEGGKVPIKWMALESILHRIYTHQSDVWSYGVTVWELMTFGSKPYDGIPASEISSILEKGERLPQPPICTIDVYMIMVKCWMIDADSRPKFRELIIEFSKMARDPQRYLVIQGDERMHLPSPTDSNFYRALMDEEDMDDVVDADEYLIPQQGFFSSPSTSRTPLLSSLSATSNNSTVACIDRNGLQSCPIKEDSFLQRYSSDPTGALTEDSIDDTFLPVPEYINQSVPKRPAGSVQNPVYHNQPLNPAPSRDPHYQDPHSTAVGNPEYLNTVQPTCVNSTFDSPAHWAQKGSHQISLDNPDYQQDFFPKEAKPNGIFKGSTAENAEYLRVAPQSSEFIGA

[24] = tested on: HepG2; assay: Antiproliferative activity against human HepG2 cells; format: functional, cell-based
[25] = tested on: HCT-116; assay: Antiproliferative activity against human HCT-116 cells; format: functional, cell-based
[26] = tested on: WI-38; assay: Antiproliferative activity against human WI-38 cells; format: functional, cell-based
[27] = target: Epidermal growth factor receptor (Homo sapiens, UniProt P00533, L858R); assay: Inhibition of EGFR L858R mutant (unknown origin)
Epidermal growth factor receptor (Homo sapiens, UniProt P00533, L858R), sequence (P00533 25-1210 L858R limits assumed): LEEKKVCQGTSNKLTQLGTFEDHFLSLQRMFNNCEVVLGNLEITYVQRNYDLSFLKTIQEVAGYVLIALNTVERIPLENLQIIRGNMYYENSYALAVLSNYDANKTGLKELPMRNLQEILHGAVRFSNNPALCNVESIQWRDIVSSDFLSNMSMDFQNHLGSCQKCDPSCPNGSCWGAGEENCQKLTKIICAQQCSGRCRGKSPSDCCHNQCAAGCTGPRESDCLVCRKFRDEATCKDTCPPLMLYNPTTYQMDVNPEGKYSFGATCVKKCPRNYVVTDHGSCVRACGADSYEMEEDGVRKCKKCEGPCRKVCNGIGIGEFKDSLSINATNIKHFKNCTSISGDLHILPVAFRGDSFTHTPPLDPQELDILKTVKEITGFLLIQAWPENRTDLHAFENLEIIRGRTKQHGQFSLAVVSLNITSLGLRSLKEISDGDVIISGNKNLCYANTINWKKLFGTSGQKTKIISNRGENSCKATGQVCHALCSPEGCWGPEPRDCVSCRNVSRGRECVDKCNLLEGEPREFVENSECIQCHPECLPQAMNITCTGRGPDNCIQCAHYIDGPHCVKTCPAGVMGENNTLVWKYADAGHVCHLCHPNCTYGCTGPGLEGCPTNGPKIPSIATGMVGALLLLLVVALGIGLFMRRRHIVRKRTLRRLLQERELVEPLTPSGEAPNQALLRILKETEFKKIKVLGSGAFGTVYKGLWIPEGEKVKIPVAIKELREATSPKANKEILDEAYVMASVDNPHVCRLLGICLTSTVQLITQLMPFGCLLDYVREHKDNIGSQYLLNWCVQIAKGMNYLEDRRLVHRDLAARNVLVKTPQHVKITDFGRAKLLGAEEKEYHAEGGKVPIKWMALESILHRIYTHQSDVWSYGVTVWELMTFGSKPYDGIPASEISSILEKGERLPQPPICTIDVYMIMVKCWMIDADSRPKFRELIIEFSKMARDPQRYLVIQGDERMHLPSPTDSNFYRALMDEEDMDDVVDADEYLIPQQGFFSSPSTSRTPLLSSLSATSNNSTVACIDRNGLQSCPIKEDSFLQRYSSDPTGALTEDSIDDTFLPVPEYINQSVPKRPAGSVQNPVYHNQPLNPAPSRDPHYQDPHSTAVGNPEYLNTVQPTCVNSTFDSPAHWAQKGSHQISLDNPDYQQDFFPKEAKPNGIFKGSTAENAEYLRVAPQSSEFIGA

[28] = target: T1, Glutamate receptor ionotropic AMPA; assay: Displacement of [3H]CNQX from AMPA receptor (unknown origin); format: protein-complex assay
[29] = target: T1, Glutamate receptor ionotropic AMPA; assay: Binding affinity to AMPA receptor (unknown origin); format: protein-complex assay
[30] = target: Glutamate receptor ionotropic, kainate 1 (Homo sapiens, UniProt P39086); assay: Binding affinity to GluK1 receptor (unknown origin)
[31] = target: Glutamate receptor ionotropic, kainate 2 (Homo sapiens, UniProt Q13002); assay: Binding affinity to GluK2 receptor (unknown origin)
[32] = target: T2, Glutamate receptor ionotropic, kainate 5 (Homo sapiens, UniProt Q16478); assay: Binding affinity to GluK5 receptor (unknown origin)
T2 sequence (Q16478 whole entry): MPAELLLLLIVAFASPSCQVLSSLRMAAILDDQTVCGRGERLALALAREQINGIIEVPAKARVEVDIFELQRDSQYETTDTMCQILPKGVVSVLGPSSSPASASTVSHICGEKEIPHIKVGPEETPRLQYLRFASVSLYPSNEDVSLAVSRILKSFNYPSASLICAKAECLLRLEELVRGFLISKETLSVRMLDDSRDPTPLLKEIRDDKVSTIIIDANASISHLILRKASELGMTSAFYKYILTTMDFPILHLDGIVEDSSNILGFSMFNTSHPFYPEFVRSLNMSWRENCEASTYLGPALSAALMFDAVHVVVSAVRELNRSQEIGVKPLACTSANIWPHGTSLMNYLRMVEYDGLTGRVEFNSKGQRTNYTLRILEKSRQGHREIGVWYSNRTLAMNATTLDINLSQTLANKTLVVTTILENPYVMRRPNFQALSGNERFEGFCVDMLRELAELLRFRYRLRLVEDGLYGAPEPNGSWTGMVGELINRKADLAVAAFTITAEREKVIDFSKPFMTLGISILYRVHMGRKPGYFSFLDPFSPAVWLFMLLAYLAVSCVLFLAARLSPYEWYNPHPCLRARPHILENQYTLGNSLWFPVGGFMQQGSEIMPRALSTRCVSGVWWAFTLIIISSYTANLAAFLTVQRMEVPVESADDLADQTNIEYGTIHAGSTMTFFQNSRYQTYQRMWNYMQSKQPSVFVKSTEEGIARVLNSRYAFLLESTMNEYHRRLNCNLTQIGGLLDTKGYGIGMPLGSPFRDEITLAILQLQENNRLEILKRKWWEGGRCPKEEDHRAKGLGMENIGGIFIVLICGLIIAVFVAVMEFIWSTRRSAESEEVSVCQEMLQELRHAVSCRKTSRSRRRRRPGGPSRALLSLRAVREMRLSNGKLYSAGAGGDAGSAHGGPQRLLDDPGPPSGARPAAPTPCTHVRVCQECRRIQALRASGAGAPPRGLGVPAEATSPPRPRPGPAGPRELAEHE

[33] = target: Glutamate receptor 2 (Homo sapiens, UniProt P42262); assay: Binding affinity to GluA2 receptor (unknown origin)
Glutamate receptor 2, sequence (P42262 whole entry): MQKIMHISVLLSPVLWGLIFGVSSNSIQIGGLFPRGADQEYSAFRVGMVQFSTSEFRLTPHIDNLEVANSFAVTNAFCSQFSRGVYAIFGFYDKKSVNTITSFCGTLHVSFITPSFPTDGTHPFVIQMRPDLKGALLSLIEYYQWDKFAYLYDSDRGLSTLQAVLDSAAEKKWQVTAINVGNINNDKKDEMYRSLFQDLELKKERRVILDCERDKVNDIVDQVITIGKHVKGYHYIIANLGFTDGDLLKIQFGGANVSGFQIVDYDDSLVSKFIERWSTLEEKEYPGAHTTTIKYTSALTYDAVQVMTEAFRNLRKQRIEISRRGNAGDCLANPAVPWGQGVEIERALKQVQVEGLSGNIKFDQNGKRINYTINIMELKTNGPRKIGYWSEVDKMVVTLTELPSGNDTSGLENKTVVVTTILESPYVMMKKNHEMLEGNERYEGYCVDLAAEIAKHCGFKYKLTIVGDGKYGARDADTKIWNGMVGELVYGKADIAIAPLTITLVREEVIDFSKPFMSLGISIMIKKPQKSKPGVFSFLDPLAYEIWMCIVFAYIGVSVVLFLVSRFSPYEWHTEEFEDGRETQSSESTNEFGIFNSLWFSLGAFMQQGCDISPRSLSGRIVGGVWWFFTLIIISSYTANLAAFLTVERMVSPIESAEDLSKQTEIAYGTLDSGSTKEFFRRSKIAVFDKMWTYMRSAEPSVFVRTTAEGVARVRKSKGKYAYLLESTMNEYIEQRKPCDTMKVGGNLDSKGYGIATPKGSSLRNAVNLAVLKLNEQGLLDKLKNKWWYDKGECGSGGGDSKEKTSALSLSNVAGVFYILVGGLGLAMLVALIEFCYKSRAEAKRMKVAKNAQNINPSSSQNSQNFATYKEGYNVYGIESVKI

[34] = tested on: Staphylococcus aureus; assay: Antibacterial activity against Staphylococcus aureus; format: functional
[35] = Cytotoxicity against mock-infected human MT4 cells; format: toxicity, cell-based

Structure (SMILES): Cc1ccccc1NCC(=O)N1CC(=O)Nc2ccccc21
- diameter of the inhibition zone (DIZ) [1]: 10 mm
- diameter of the inhibition zone (DIZ) [2]: 15 mm
- diameter of the inhibition zone (DIZ) [3]: 15 mm
- diameter of the inhibition zone (DIZ) [4]: 12 mm
- diameter of the inhibition zone (DIZ) [5]: 9 mm
- diameter of the inhibition zone (DIZ) [6]: 15 mm

Structure (SMILES): Cn1c(=O)c(Cc2ccc(C(=N)N)cc2)nc2cc(C3(C(=O)N4CCCC4C(=O)NCC(=O)O)CC3)ccc21 (stereo unspecified)
- IC50 [7]: 2.4 µM

Structure (SMILES): O=C1CN(CCCCCN2CCCCC2)c2ccc([N+](=O)[O-])cc2N1
- Activity [8]: 92%

Structure (SMILES): O=C(Cn1c(=O)c(/C=C/c2ccncc2)nc2ccccc21)Nc1ccc(Cl)cc1
- IC50 [9]: > 100 µM
- IC50 [10]: > 100 µM
- inhibition [11]: 44%
- IC50 [12]: > 100 µM
- IC50 [13]: 50.4 µM
- IC50 [14]: > 100 µM
- IC50 [15]: > 100 µM

Structure (SMILES): O=C(O)c1nc2c(=O)[nH]c3cc(Cl)c(-n4cnnc4)cc3n2n1 [TQX-173]
- Ki [16]: 0.14 µM
- IC50 [17]: 46 µM
- IC50 [18]: 11.6 µM
- Ki [19]: 33.5 µM
- IC50 [20]: 2.3 µM

Structure (SMILES): O=C(NCc1cc(Br)cc2[nH]c(=O)c(=O)[nH]c12)c1ccsc1
- IC50 [21]: 0.01 µM
- IC50 [22]: 2 µM

Structure (SMILES): NNC(=O)/C=C1/Nc2ccc(Br)cc2NC1=O
- IC50 [23]: 1.55 µM
- IC50 [24]: 18.6 µM
- IC50 [25]: 28.4 µM
- IC50 [12]: 16.9 µM
- IC50 [26]: 227 µM
- IC50 [27]: 0.0873 µM

Structure (SMILES): O=C(Cc1ccsc1)NCc1cc(Br)cc2nc(O)c(O)nc12
- IC50 [21]: 0.01 µM
- IC50 [22]: 11.3 µM

Structure (SMILES): Cc1cc2[nH]c(=O)c(=O)[nH]c2cc1C=O
- IC50 [16]: 11 µM
- IC50 [28]: 4 µM
- IC50 [18]: 54 µM

Structure (SMILES): O=C(Nn1c(=O)c(=O)[nH]c2cc(C(F)(F)F)c(F)cc21)c1ccccc1O
- Ki [29]: 0.96 µM
- Ki [30]: 1.12 µM
- Ki [31]: 0.908 µM
- Ki [32]: 26.4 µM
- Ki [33]: 4.12 µM

Structure (SMILES): O=c1[nH]c2ccc(Cl)c(Cl)c2nc1C(F)(F)F
- MBC [34]: 200 µM (≈ 56.6 µg/mL)
- MIC [34]: 33 µM (≈ 9.34 µg/mL)
- CC50 [35]: 108 µM

Structure (SMILES): COC(=O)CCc1nc2ccc(Cl)cc2[nH]c1=O
- IC50 [23]: 1.34 µM
- IC50 [24]: 46.2 µM
- IC50 [25]: 31.6 µM
- IC50 [12]: 23.3 µM
- IC50 [26]: 242 µM
- IC50 [27]: 0.0828 µM

Structure (SMILES): COc1ccc2[nH]c(=O)c(CBr)nc2c1Cl
- CC50 [35]: 21 µM

Structure (SMILES): O=C(Cn1c(=O)c(/C=C/c2ccncc2)nc2ccccc21)Nc1ccc(Cl)c(Cl)c1
- IC50 [9]: > 100 µM
- IC50 [10]: > 100 µM
- inhibition [11]: 56%
- IC50 [12]: 47.6 µM
- IC50 [13]: > 100 µM
- IC50 [14]: > 100 µM
- IC50 [15]: > 100 µM

Structure (SMILES): O=C(NCc1cc(Br)cc2nc(O)c(O)nc12)c1cccs1
- IC50 [21]: 0.01 µM
- IC50 [22]: 1.6 µM

Structure (SMILES): O=C1CN(C(=O)CCl)c2ccccc2N1
- diameter of the inhibition zone (DIZ) [1]: 16 mm
- diameter of the inhibition zone (DIZ) [4]: 15 mm

Structure (SMILES): COC(=O)CCc1nc2ccc(Br)cc2[nH]c1=O
- IC50 [23]: 0.957 µM
- IC50 [24]: 15.6 µM
- IC50 [25]: 13.8 µM
- IC50 [12]: 17.9 µM
- IC50 [26]: 142 µM
- IC50 [27]: 0.0754 µM

Structure (SMILES): O=c1[nH]c2ccc(Cl)c(Cl)c2nc1CBr
- CC50 [35]: 24 µM

Reference: ChEMBL document CHEMBL5113380, “Functionalized quinoxalinones as privileged structures with broad-ranging pharmacological activities” (Eur J Med Chem, 2022)
